Patent publication US5185320A, “O^56 -alkyl derivatives of aglycone and pseudo aglycones of teicoplanin” (Gruppo Lepetit S.p.A., priority 1989, dated 1993)
Values belong to the molecule of their own block, whether it stands above or below them.

How the values were obtained:
Type in all cases: cell-based
Details in all cases: inoculum about 10^4 CFU/ml, 18-24 h at 37° C.
[1] = system: Neisseria gonorrhoeae ISM68/126; assay: MIC, standard dilution test, Neisseria gonorrhoeae ISM68/126
Method: (§1) ISOSENSITEST broth (Oxoid) and TOLLD-HEWITT broth (Difco) are used for growing staphylococci and streptococci, respectively. Broth cultures are diluted so that the final inoculum is about 10^4 colony forming units/ml (CFU/ml).

Strep. pyogenes C 203 = assay: MIC, standard dilution test, Strep. pyogenes C 203
Method: as §1

Staph. aureus Tour L 165 = assay: MIC, standard dilution test, Staph. aureus Tour L 165
Method: as §1

Strep. mitis L 796 = assay: MIC, standard dilution test, Strep. mitis L 796
Method: as §1

[2] = system: Strep. faecalis ATCC 7080; assay: MIC, standard dilution test, Strep. faecalis ATCC 7080
Method: as §1

[3] = system: Haemophilus influenzae ATCC 19418; assay: MIC, standard dilution test, Haemophilus influenzae ATCC 19418
Method: as §1

[4] = system: Escherichia coli SKF 12140; assay: MIC, standard dilution test, Escherichia coli SKF 12140
Method: as §1

[5] = system: Pseudomonas aeruginosa ATCC 10145; assay: MIC, standard dilution test, Pseudomonas aeruginosa ATCC 10145
Method: as §1

[6] = system: Staph. haemolyticus L 602; assay: MIC, standard dilution test, Staph. haemolyticus L 602
Method: as §1

Strep. pneumoniae UC41 = assay: MIC, standard dilution test, Strep. pneumoniae UC41
Method: as §1

[7] = system: Proteus vulgaris ATCC 881; assay: MIC, standard dilution test, Proteus vulgaris ATCC 881
Method: as §1

[8] = system: Staph. epidermidis ATCC 12228; assay: MIC, standard dilution test, Staph. epidermidis ATCC 12228
Method: as §1

SMILES: COC(=O)C1NC(=O)C2NC(=O)C(NC(=O)C3NC(=O)C4NC(=O)C(Cc5ccc(c(Cl)c5)Oc5cc3cc(c5OCCCCN)Oc3ccc(cc3Cl)C2O[C@@H]2O[C@H](CO)[C@@H](O)[C@H](O)[C@H]2NC(C)=O)NC(=O)C(N)c2ccc(O)c(c2)Oc2cc(O)cc4c2)c2ccc(O)c(c2)-c2c(O[C@H]3O[C@H](CO)[C@@H](O)[C@H](O)[C@@H]3O)cc(O)cc21 (stereo partly drawn) [Compound 10, O^56-(4-aminobutyl)teicoplanin pseudoaglycone methyl ester]
Minimal inhibitory concentration (MIC) [1]: > 128
Minimal inhibitory concentration (MIC) (Strep. pyogenes C 203): 0.125
Minimal inhibitory concentration (MIC) (Staph. aureus Tour L 165): 2
Minimal inhibitory concentration (MIC) (Strep. mitis L 796): 1
Minimal inhibitory concentration (MIC) [2]: 4
Minimal inhibitory concentration (MIC) [3]: > 128
Minimal inhibitory concentration (MIC) [4]: > 128
Minimal inhibitory concentration (MIC) [5]: > 128
Minimal inhibitory concentration (MIC) [6]: 16
Minimal inhibitory concentration (MIC) (Strep. pneumoniae UC41): 1
Minimal inhibitory concentration (MIC) [7]: > 128
Minimal inhibitory concentration (MIC) [8]: 4

SMILES: N#CCOC(=O)C1NC(=O)C2NC(=O)C(NC(=O)C3NC(=O)C4NC(=O)C(Cc5ccc(c(Cl)c5)Oc5cc3cc(c5OCC#N)Oc3ccc(cc3Cl)C2O)NC(=O)C(N)c2ccc(O)c(c2)Oc2cc(O)cc4c2)c2ccc(O)c(c2)-c2c(O)cc(O)cc21.O=C(O)C(F)(F)F (stereo not drawn) [Compound 12, O^56 -(cyanomethyl)deglucoteicoplanin cyanomethyl ester trifluoroacetate salt]
Minimal inhibitory concentration (MIC) [1]: > 128
Minimal inhibitory concentration (MIC) (Strep. pyogenes C 203): 0.125
Minimal inhibitory concentration (MIC) (Staph. aureus Tour L 165): 0.125
Minimal inhibitory concentration (MIC) (Strep. mitis L 796): 0.125
Minimal inhibitory concentration (MIC) [2]: 1
Minimal inhibitory concentration (MIC) [3]: 64
Minimal inhibitory concentration (MIC) [4]: > 128
Minimal inhibitory concentration (MIC) [5]: > 128
Minimal inhibitory concentration (MIC) [6]: 1
Minimal inhibitory concentration (MIC) (Strep. pneumoniae UC41): 0.125
Minimal inhibitory concentration (MIC) [7]: > 128
Minimal inhibitory concentration (MIC) [8]: 0.063

SMILES: COC(=O)C1NC(=O)C2NC(=O)C(NC(=O)C3NC(=O)C4NC(=O)C(Cc5ccc(c(Cl)c5)Oc5cc3cc(c5OCCN3CCCC3)Oc3ccc(cc3Cl)C2O)NC(=O)C(N)c2ccc(O)c(c2)Oc2cc(O)cc4c2)c2ccc(O)c(c2)-c2c(O)cc(O)cc21.Cl.Cl (stereo not drawn) [Compound 13, O^56-[2-(1-pyrrolidinyl)ethyl]deglucoteicoplanin methyl ester dihydrochloride]
Minimal inhibitory concentration (MIC) [1]: 32
Minimal inhibitory concentration (MIC) (Strep. pyogenes C 203): 0.125
Minimal inhibitory concentration (MIC) (Staph. aureus Tour L 165): 0.125
Minimal inhibitory concentration (MIC) (Strep. mitis L 796): 0.125
Minimal inhibitory concentration (MIC) [2]: 0.125
Minimal inhibitory concentration (MIC) [3]: 64
Minimal inhibitory concentration (MIC) [4]: 8
Minimal inhibitory concentration (MIC) [5]: 64
Minimal inhibitory concentration (MIC) [6]: 0.5
Minimal inhibitory concentration (MIC) (Strep. pneumoniae UC41): 0.25
Minimal inhibitory concentration (MIC) [7]: 128
Minimal inhibitory concentration (MIC) [8]: 0.25

SMILES: NCCNCCOc1c2cc3cc1Oc1ccc(cc1Cl)C(O)C1NC(=O)C(NC(=O)C3NC(=O)C3NC(=O)C(Cc4ccc(c(Cl)c4)O2)NC(=O)C(N)c2ccc(O)c(c2)Oc2cc(O)cc3c2)c2ccc(O)c(c2)-c2c(O)cc(O)cc2C(C(=O)NCCN)NC1=O (stereo not drawn) [Compound 15, O^56-[2-(1-ethylendiaminyl)ethyl]deglucoteicoplanin ethylenediamine amide]
Minimal inhibitory concentration (MIC) [1]: 64
Minimal inhibitory concentration (MIC) (Strep. pyogenes C 203): 0.063
Minimal inhibitory concentration (MIC) (Staph. aureus Tour L 165): 0.125
Minimal inhibitory concentration (MIC) (Strep. mitis L 796): 0.25
Minimal inhibitory concentration (MIC) [2]: 0.25
Minimal inhibitory concentration (MIC) [3]: 128
Minimal inhibitory concentration (MIC) [4]: 8
Minimal inhibitory concentration (MIC) [5]: 64
Minimal inhibitory concentration (MIC) [6]: 0.25
Minimal inhibitory concentration (MIC) (Strep. pneumoniae UC41): 0.125
Minimal inhibitory concentration (MIC) [7]: 64
Minimal inhibitory concentration (MIC) [8]: 0.125

Continued, in another order:

Minimal inhibitory concentration (MIC) [1]: > 128
Minimal inhibitory concentration (MIC) (Strep. pyogenes C 203): 0.125
Minimal inhibitory concentration (MIC) (Staph. aureus Tour L 165): 0.5
Minimal inhibitory concentration (MIC) (Strep. mitis L 796): 0.25
Minimal inhibitory concentration (MIC) [2]: 1
Minimal inhibitory concentration (MIC) [3]: 64
Minimal inhibitory concentration (MIC) [4]: 64
Minimal inhibitory concentration (MIC) [5]: > 128
Minimal inhibitory concentration (MIC) (Strep. pneumoniae UC41): 0.25
Minimal inhibitory concentration (MIC) [7]: > 128
Minimal inhibitory concentration (MIC) [8]: 0.125
SMILES: COC(=O)C1NC(=O)C2NC(=O)C(NC(=O)C3NC(=O)C4NC(=O)C(Cc5ccc(c(Cl)c5)Oc5cc3cc(c5OCCBr)Oc3ccc(cc3Cl)C2O)NC(=O)C(N)c2ccc(O)c(c2)Oc2cc(O)cc4c2)c2ccc(O)c(c2)-c2c(O)cc(O)cc21 (stereo not drawn) [Compound 11, O^56-(2-bromoethyl)deglucoteicoplanin methyl ester]
Minimal inhibitory concentration (MIC) [6]: 2

Minimal inhibitory concentration (MIC) [1]: 64
Minimal inhibitory concentration (MIC) (Strep. pyogenes C 203): 0.25
Minimal inhibitory concentration (MIC) (Staph. aureus Tour L 165): 0.25
Minimal inhibitory concentration (MIC) (Strep. mitis L 796): 0.125
Minimal inhibitory concentration (MIC) [2]: 0.125
Minimal inhibitory concentration (MIC) [3]: 64
Minimal inhibitory concentration (MIC) [4]: 32
Minimal inhibitory concentration (MIC) [5]: > 128
Minimal inhibitory concentration (MIC) (Strep. pneumoniae UC41): 0.125
Minimal inhibitory concentration (MIC) [7]: > 128
Minimal inhibitory concentration (MIC) [8]: 0.125
SMILES: COC(=O)C1NC(=O)C2NC(=O)C(NC(=O)C3NC(=O)C4NC(=O)C(Cc5ccc(c(Cl)c5)Oc5cc3cc(c5OCCN3CCOCC3)Oc3ccc(cc3Cl)C2O)NC(=O)C(N)c2ccc(O)c(c2)Oc2cc(O)cc4c2)c2ccc(O)c(c2)-c2c(O)cc(O)cc21.Cl.Cl (stereo not drawn) [Compound 14, O^56-[2-(1-morpholinyl)ethyl]deglucoteicoplanin methyl ester dihydrochloride]
Minimal inhibitory concentration (MIC) [6]: 2

Minimal inhibitory concentration (MIC) [1]: 64
Minimal inhibitory concentration (MIC) (Strep. pyogenes C 203): 0.5
Minimal inhibitory concentration (MIC) (Staph. aureus Tour L 165): 0.125
Minimal inhibitory concentration (MIC) (Strep. mitis L 796): 0.5
Minimal inhibitory concentration (MIC) [2]: 0.5
Minimal inhibitory concentration (MIC) [3]: > 128
Minimal inhibitory concentration (MIC) [4]: > 128
Minimal inhibitory concentration (MIC) [5]: > 128
Minimal inhibitory concentration (MIC) (Strep. pneumoniae UC41): 0.25
Minimal inhibitory concentration (MIC) [7]: > 128
Minimal inhibitory concentration (MIC) [8]: 0.25
SMILES: NC1C(=O)NC2Cc3ccc(c(Cl)c3)Oc3cc4cc(c3OC3CCOC3=O)Oc3ccc(cc3Cl)C(O)C3NC(=O)C(NC(=O)C4NC(=O)C(NC2=O)c2cc(O)cc(c2)Oc2cc1ccc2O)c1ccc(O)c(c1)-c1c(O)cc(O)cc1C(C(=O)O)NC3=O (stereo not drawn) [Compound 16, O^56-(tetrahydro-2-oxo-3-furanyl)deglucoteicoplanin]
Minimal inhibitory concentration (MIC) [6]: 4

Minimal inhibitory concentration (MIC) [1]: > 128
Minimal inhibitory concentration (MIC) (Strep. pyogenes C 203): 0.125
Minimal inhibitory concentration (MIC) (Staph. aureus Tour L 165): 0.25
Minimal inhibitory concentration (MIC) (Strep. mitis L 796): 0.25
Minimal inhibitory concentration (MIC) [2]: 0.125
Minimal inhibitory concentration (MIC) [3]: > 128
Minimal inhibitory concentration (MIC) [4]: > 128
Minimal inhibitory concentration (MIC) [5]: > 128
Minimal inhibitory concentration (MIC) (Strep. pneumoniae UC41): 0.5
Minimal inhibitory concentration (MIC) [7]: > 128
Minimal inhibitory concentration (MIC) [8]: 0.125
SMILES: Cl.NC1C(=O)NC2Cc3ccc(c(Cl)c3)Oc3cc4cc(c3OCCBr)Oc3ccc(cc3Cl)C(O)C3NC(=O)C(NC(=O)C4NC(=O)C(NC2=O)c2cc(O)cc(c2)Oc2cc1ccc2O)c1ccc(O)c(c1)-c1c(O)cc(O)cc1C(C(=O)OCCBr)NC3=O (stereo not drawn) [Compound 17, O^56-(2-bromoethyl)deglucoteicoplanin 2-bromoethyl ester hydrochloride salt]
Minimal inhibitory concentration (MIC) [6]: 4
